According to patent US20240141294A1, “CGMP COMPLIANT PRODUCTION AND EXPANSION OF PLASMACYTOID DENDRITIC CELLS FROM HEMATOPOIETIC STEM AND PROGENITOR CELLS” (AARHUS UNIVERSITET, priority 2021, published 2024):

Tests used:
[1] = tested on: CD34+ HSPCs; assay: HSPC expansion and HSPC-pDC differentiation culture (cell numbers, viability, HSPC-pDC yield); format: cell-based, human
Method: Depending on optimization regiments, freshly or cryo-preserved HSPCs from various sources were differentiated to HSPC-pDCs using different types of medium. For STD and LD/RPMI conditions, HSPCs were cultured in RPMI 1640 (Lonza) supplemented with 10% heat-inactivated fetal calf serum (FCS) (HyClone®), 600 μg/mL L-Glutamine (Sigma), 200 U/mL penicillin and 100 μg/mL streptomycin (Gibco®, Life Technologies). For STD conditions, HSPCs were cultured at a fixed volume during pDC differentiation, versus a fixed density of 0.5-5×10^6 cells/mL for the LD condition. For serum-free (SFEM II) or CGMP serum-free medium (DC medium) conditions, HSPCs were cultured in SFEM II or DC medium at low density (0.5-5×10^6 cells/mL). […] All cytokines are from Peprotech. In addition, the small molecule inhibitor StemRegenin 1 (SR1, […] Technologies) was added at a concentration of 1 μM. For serum-free medium conditions, a concentration of 20 μg/mL streptomycin and 20 U/mL penicillin (Gibco, Life Technologies) was added. Moreover, for the CGMP DC medium condition, 50 μg/mL of ascorbic acid was added. Cells were cultured at 37° C., 95% humidity, and 5% CO2 for up to 21 days depending on optimizations. For the fixed density conditions, medium was replenished every 2-4 day depending on the growth of the HSPCs. Total cell numbers during expansion and differentiation of HSPCs was determined using a TC20 Automated Cell Counter (Bio-Rad). At the end of culture, HSPC-pDCs were enriched using a negative selection kit, according to manufacturer's instructions (EasySep Human Plasmacytoid Dendritic Cell Enrichment kit, […] Technologies).
De-identified umbilical cord blood (UCB) samples were obtained following scheduled caesarean section deliveries of healthy infants at Department of Gynecology and Obstetrics, Skejby University Hospital. Consent was obtained from the mothers. CD34^+ cord blood HSPCs (CB-HSPC) were subsequently purified using EasySep Human Cord Blood CD34 Positive Selection kit II, according to manufacturer's instructions ([…] Technologies). Briefly, a pre-enrichment of CD34+ cells was performed were bi-specific antibodies targeting unwanted cells were used during standard Ficoll-Hypaque (GE Healthcare) density-gradient centrifugation. CD34+ cells were subsequently isolated using anti-CD34 immunomagnetic beads (positive selection). CD34^+ CB HSPCs were either freshly used or cryo-preserved until use.

[2] = tested on: HSPC-pDCs; assay: TLR7 or TLR9 agonist activation, functional type I IFN (HEK-blue IFN-α/β reporter); format: cell-based, human
Method: Priming of HSPC-pDCs was performed as previously described. Isolated HSPC-pDCs were primed in the same medium as the differentiation was done in (either RPMI 1640, SFEM II or DC medium). […] For HSPC-pDCs differentiated in DC medium, medium was also supplemented with 50 μg/mL ascorbic acid. Cells were primed for three days before being phenotypically or functionally characterized.
To analyze the capacity of HSPC-pDCs to produce type I IFN, 4×10^4 pDCs were seeded out in 96-well plates in the same medium as the differentiation was done in (either RPMI 1640, SFEM II or DC medium). […] Cells were subsequently stimulated with agonists directed against TLR7 (R837, tlrl-imq, InvivoGen) or TLR9 (CpG-A 2216, tlrl-2216-1, InvivoGen) at a final concentration of 2.5 μg/mL. Twenty hours post stimulation supernatants were harvested and cryopreserved at −20° C. until analysis.
To quantify functional type I IFN, the reporter cell line HEK-blue IFN-α/β was utilized, according to the manufacturer's instructions (InvivoGen). […] Activity of SEAP was assessed using QUANTI-Blue (InvivoGen). Color change was measured at an optical density (OD) of 620 nm using the SpectraMax iD3 platereader (Molecular Devices). […]

O=C1O[C@H]([C@@H](O)CO)C(O)=C1O [ascorbic acid]
viability of HSPC-pDCs isolated at day 21 ([1]; AA addition versus 72.8%±3.2% for DC medium alone): 92.0%
percentage of HSPC-pDCs of the total population of cells ([1]; AA supplementation of DC medium): without affecting
yield of HSPC-pDCs isolated at day 21 ([1]; DC medium+AA versus 0.5×10^9+0.3×10^9 for DC medium alone): 1.0×10^9 HSPC-pDCs per 0.1×10^6 CD34+ H
expansion during HSPC-pDC differentiation ([1]; DC medium+AA versus 13,456 fold (±6,953) for DC medium alone, 1×10^5 HSPCs seeded): 33,554 fold
viability of expanding HSPCs during culture ([1]; DC medium+AA vs DC medium alone, in particular Day 12+): significantly improved
type I IFN response to synthetic TLR7 and TLR9 agonists ([2]; HSPC-pDCs from AA culture, isolated day 16 and 21, in contrast to DC medium alone): robust type I IFN response
cHSPC-pDC TLR7 and TLR9-mediated type I IFN production ([2]; cHSPC-pDCs from peripheral blood cHSPCs, SFEM II, DC medium or DC medium+AA): required
